Experiments:
[1] = tested on: Diet-Induced Obese (DIO) Mice; assay: Fasting plasma glucose in diet-induced obese mice; format: in vivo, Mus Musculus
[2] = tested on: Diet-Induced Obese (DIO) Mice; assay: ipGTT (glucose tolerance) in diet-induced obese mice; format: in vivo, Mus Musculus
db/db mice = assay: Fasting plasma glucose in db/db mice; format: in vivo, Mus Musculus; conditions: for FPG Day 0: Methazolamide 20 mg/kg group
Text: The db/db mouse model comprises mice with a homozygous mutation of the leptin receptor gene that ablates leptin signalling in the hypothalamus and elsewhere. The db/db mouse model is commonly used to study the genetic and physiological mechanisms of obesity and type II diabetes. […] Leptin acts through the leptin receptor to control whole-body energy homeostasis by regulating both appetite and energy expenditure. Loss of function of the leptin receptor gene results in hyperphagia and slower metabolism, leading to obesity and eventually diabetes. […] Dosing solutions of the test articles: Methazolamide, Metformin and Methazolamide/Metformin were prepared fresh on each dosing day and stored at room temperature, protected from light. The compound was formulated in sterile vehicle: […] Stock solutions were prepared by dissolving the compound in NMP:PEG300 (1:2, v/v). Saline was added to the stock solution prior to administration of the compound. The solutions were mixed by vortexing immediately prior to dosing to ensure a homogeneous suspension of the compound. Male C57Bl/6J db/db mice were obtained at 10 weeks of age from Animal Resources Centre ([…], Western Australia). Animals were individually housed and allowed free movement and ad libitum access to water and food. Animals were maintained on a 12 hour light (6 am-6 pm) and 12 hour dark (6 pm-6 am) cycle. Animals were monitored daily. Body weight, food and water intake were recorded 3 times a week. Mice were fed a standard chow diet, and used after a two week acclimatisation period. […] The fasting plasma glucose levels of the animals was tested prior to commencement of the study and then every 3-4 days during dosing. The animals were fasted for a period of 4 hours after dosing and prior to the taking of a blood sample via a tail nick. Blood glucose levels were monitored using commercially available glucometers (Accuchek Advantage, Roche) based on the electric current generated when a blood drop is spotted on a test strip resulting in conversion of the glucose present in the sample to gluconolactone by the glucose dehydrogenase enzyme, in the presence of the coenzyme (PQQ).

[3] = Body weight of treated db/db mice; format: in vivo, Mus Musculus; conditions: Day 0, Day 8 or Day 18, db/db mice
Procedure: Male C57Bl/6J db/db mice were obtained at 10 weeks of age from Animal Resources Centre ([…], Western Australia). Animals were individually housed and allowed free movement and ad libitum access to water and food. Animals were maintained on a 12 hour light (6 am-6 pm) and 12 hour dark (6 pm-6 am) cycle. Animals were monitored daily. Body weight, food and water intake were recorded 3 times a week. Mice were fed a standard chow diet, and used after a two week acclimatisation period.

[4] = Body weight of treated diet-induced obese mice; format: in vivo, Mus Musculus; conditions: Day 0 or Day 13, DIO mice
Procedure: Male C57Bl/6J mice were obtained at 8 weeks of age from Animal Resources Centre (Canning Vale, Western Australia). Animals were individually housed and allowed free movement and ad libitum access to water and food. Animals were maintained on a 12 hour light (6 am-6 pm) and 12 hour dark (6 pm-6 am) cycle. Animals were monitored daily. Body weight, food and water intake were recorded 3 times a week.

[5] = tested on: obese Psammomys obesus (Israeli sand rats); assay: Oral glucose tolerance test in obese Psammomys obesus; format: in vivo
Text: The outbred Israeli sand rat, Psammomys obesus is a unique animal model for the study of obesity and diabetes. When housed under standard laboratory conditions, a proportion of Israeli sand rats become obese and develop type 2 diabetes spontaneously, without requiring high caloric feeding like the diet-induced obese mouse model, or as a consequence of a mutation in a particular gene as in the db/db mouse model. In this regard their evolution into a diabetic state closely resembles the environmental and polygenic human condition. Type 2 diabetic P. obesus are also profoundly insulin resistant, as measured by the area under the blood glucose curve during an oral glucose tolerance test (OGTT). In addition, a proportion of the animals remain lean and healthy under these same conditions, while others develop a range of intermediate phenotypes. This response is similar to that seen in human populations. Diabetic P. obesus are characterised by having elevated blood glucose levels. […] USA). […] Glucose was measured in whole blood using a YSI glucose analyser (Model #2300 STAT PLUS, Yellow Springs Instruments Co., Ohio, USA). The instrument takes a sample aliquot of 25 μl and is calibrated every 10 samples using 5.55 and 8.33 mmol/L glucose standards. The analyser utilises a probe fitted with a 3-layer membrane containing an immobilised enzyme. J3-D-glucose is oxidised by glucose oxidase, which is immobilised on a polycarbonate cellulose membrane, to form glucono-( )-lactone and hydrogen peroxide. The hydrogen peroxide in turn, is oxidised at the platinum anode, producing electrons. The electron flow is linearly proportional to the steady state hydrogen peroxide concentration and therefore to the concentration of glucose in the sample. Insulin levels were measured in plasma obtained after the […] heparin-coated tubes. Plasma insulin concentrations were determined using a commercially-available double antibody radio-immunoassay (RIA) kit. (Linco Research Inc., USA). […] Solutions were then incubated for 2 hours before adding 1 ml of sheep anti-guinea pig antibody (second antibody) and left to incubate again for 30 min at room temperature. Bound and free insulin were then separated by centrifugation at 3,500 g for 20 min (Beckman Centrifuge Model J6B, Beckman Instruments, […], Australia), leaving the bound insulin in a pellet at the bottom of the tube following aspiration of each sample. A gamma counter (Minaxi g Auto-gamma 5000 series. Packard Instrument Company, IL, USA) with a counting time of 1 min was then used to measure the radioactivity of the solid phase pellet.

3T3-L1 adipocytes = assay: 2-Deoxyglucose uptake by 3T3-L1 adipocytes; format: cell-based; conditions: for 2-Deoxyglucose uptake (Normalised: Vehicle with no insulin = 100%): DCP 10 μM
Procedure: Dichlorphenamide was added during serum-starvation. […] Insulin at 0, 0.5 and 10 nM was added for 20 min at 37° C. Uptake of 50 μM 2-deoxy glucose and 0.5 μCi 2-deoxy-[U-^3H] glucose (NEN, PerkinElmer Life Sciences) per well was measured over the final 10 min of insulin stimulation. […] Counts per minute (cpm) were measured by scintillator counter. […] The data is expressed as a mean±SEM. The statistical analysis was performed using an umpaired t-test (2-tailed).

[6] = Methazolamide 10 mg/kg oral gavage (Table 5-1)
[7] = Methazolamide 10 mg/kg oral gavage (Table 8-1)
[8] = Methazolamide 20 mg/kg group, before dosing
[9] = Methazolamide 20 mg/kg oral gavage
[10] = Methazolamide 50 mg/kg group, before dosing
[11] = Methazolamide 50 mg/kg oral gavage
[12] = Methazolamide 100 mg/kg group, before dosing
[13] = Methazolamide 100 mg/kg oral gavage
[14] = Methazolamide 10 mg/kg oral gavage (Table 5-2)
[15] = Methazolamide 10 mg/kg oral gavage (Table 8-2)
[16] = dichlorphenamide 20 mg/kg oral gavage
[17] = Dichlorphenamide 50 mg/kg oral gavage
[18] = 20 mg/Kg DCP oral gavage, 0 min after glucose gavage
[19] = 20 mg/Kg DCP oral gavage, 15 min after glucose gavage
[20] = 20 mg/Kg DCP oral gavage, 30 min after glucose gavage
[21] = 20 mg/Kg DCP oral gavage, 45 min after glucose gavage
[22] = 20 mg/Kg DCP oral gavage, 60 min after glucose gavage
[23] = 20 mg/Kg DCP oral gavage, 90 min after glucose gavage

## CC(=O)/N=c1\sc(S(N)(=O)=O)nn1C [Methazolamide, 5-acetylimino-4-methyl-Δ^2-1,3,4-thiadiazoline-2-sulfonamide]
[1]
  effect on fasting plasma glucose levels of diet-induced obese mice: reduced the fasting plasma glucose levels
[1]; Methazolamide 10 mg/kg group, before dosing (Table 5-1)
  FPG Day −1: 6.92 ± 0.55 mM
[1]; Methazolamide 10 mg/kg group, before dosing (Table 8-1)
  FPG Day −1: 6.1 ± 0.5 mM
[1]; [6]
  Delta FPG Treatment Day 13 vs Day −1: 12%
  FPG Day 13: 7.75 ± 0.43 mM
  FPG Treatment vs Vehicle Day 13: 1%
[1]; [7]
  Delta FPG Treatment Day 13 vs Day −1: 8%
  Delta FPG Treatment vs Vehicle Day 13: −12%
  FPG Day 13: 6.6 ± 0.4 mM
[1]; [8]
  FPG Day −1: 7.28 ± 0.47 mM
[1]; [9]
  Delta FPG Treatment Day 13 vs Day −1: −5%
  FPG Day 13: 6.90 ± 0.24 mM
  FPG Treatment vs Vehicle Day 13: −10%^
[1]; [10]
  FPG Day −1: 7.20 ± 0.71 mM
[1]; [11]
  Delta FPG Treatment Day 13 vs Day −1: −13%
  FPG Day 13: 6.28 ± 0.31 mM
  FPG Treatment vs Vehicle Day 13: −18%^1
[1]; [12]
  FPG Day −1: 7.63 ± 0.55 mM
[1]; [13]
  Delta FPG Treatment Day 13 vs Day −1: −21%
  FPG Day 13: 6.05 ± 0.15 mM
  FPG Treatment vs Vehicle Day 13: −21%^2
[2]
  effect on glucose tolerance of diet-induced obese mice: increased the glucose tolerance
[2]; Methazolamide 10 mg/kg group, before dosing (Table 5-2)
  AUC Day −1: 1038 ± 129 mM·min
[2]; Methazolamide 10 mg/kg group, before dosing (Table 8-2)
  AUC Day −1: 1190 ± 62 mM·min
[2]; [14]
  AUC Day 13: 901 ± 139 mM·min
  Delta AUC Treatment Day 13 vs Day −1: −13%^
  Delta AUC Treatment vs Vehicle Day 13: −8%
[2]; [15]
  AUC Day 13: 1131 ± 95 mM·min
  AUC Day 13 Treat vs Veh: −6%
  Delta AUC Day 13 vs Day −1: −5%
[2]; [8]
  AUC Day −1: 1070 ± 77 mM·min
[2]; [9]
  AUC Day 13: 619 ± 106 mM·min
  Delta AUC Treatment Day 13 vs Day −1: −42%^1
  Delta AUC Treatment vs Vehicle Day 13: −37%^1
[2]; [10]
  AUC Day −1: 1073 ± 112 mM·min
[2]; [11]
  AUC Day 13: 710 ± 87 mM·min
  Delta AUC Treatment Day 13 vs Day −1: −34%^1
  Delta AUC Treatment vs Vehicle Day 13: −27%^1
[2]; [12]
  AUC Day −1: 1080 ± 59 mM·min
[2]; [13]
  AUC Day 13: 691 ± 60 mM·min
  Delta AUC Treatment Day 13 vs Day −1: −36%^2
  Delta AUC Treatment vs Vehicle Day 13: −29%^1
db/db mice; before dosing (Table 9-1)
  FPG Day 0: 23.93 ± 1.6 mM
db/db mice; before dosing (Table 9-2)
  FPG Day 0: 23.93 ± 1.6 mM
db/db mice; [9]
  Delta FPG Treatment Day 8 vs Day 0: −32%^1
  Delta FPG Treatment Day 18 vs Day 0: −29%^1
  FPG Day 8: 16.30 ± 1.8 mM
  FPG Day 18: 17.00 ± 2.5 mM
  FPG Treatment vs Vehicle Day 8: −30%^4
  FPG Treatment vs Vehicle Day 18: −38%^3
db/db mice; after 8 days of treatment
  effect on fasting plasma glucose levels of db/db mice: reduced the fasting plasma glucose levels
db/db mice; after 18 days of treatment
  effect on fasting plasma glucose levels of db/db mice: reduced the fasting plasma glucose levels
[3]
  difference in body weight vs Vehicle group: no difference in body weight
[4]
  difference in body weight between treated groups: no difference in body weight

## NS(=O)(=O)c1cc(Cl)c(Cl)c(S(N)(=O)=O)c1 [Dichlorphenamide]
[1]
  effect on fasting plasma glucose levels of diet-induced obese mice: reduced the fasting plasma glucose levels
[1]; dichlorphenamide 20 mg/kg group, before dosing
  FPG Day −1: 10.05 ± 0.2 mM
[1]; [16]
  Delta FPG Treatment Day 14 vs Day −1: −17%^1
  Delta FPG Treatment vs Vehicle Day 14: −11%^2
  FPG Day 14: 8.35 ± 0.2 mM
[2]
  effect on glucose tolerance of diet-induced obese mice: improves the glucose tolerance
[2]; Dichlorphenamide 20 mg/kg group, before dosing, in mM·min
  AUC Day −1: 1350 ± 56
[2]; Dichlorphenamide 20 mg/kg oral gavage, in mM·min
  AUC Day 19: 832 ± 80
[2]; Dichlorphenamide 50 mg/kg group, before dosing, in mM·min
  AUC Day −1: 1345 ± 73
[2]; [17]
  AUC Day 19 Treat vs Veh: −8%
  Delta AUC Day 19 vs Day −1: −32%^1
[2]; Dichlorphenamide 50 mg/kg oral gavage, in mM·min
  AUC Day 19: 908 ± 38
[2]; [16]
  AUC Day 19 Treat vs Veh: −16%
  Delta AUC Day 19 vs Day −1: −38%^2
[5]; [18]
  Plasma Glucose: 3.4 ± 0.2 mM
  Plasma Insulin: 48 ± 15 mU/ml
[5]; [19]
  Plasma Glucose: 5.4 ± 0.2 mM
  Plasma Insulin: 141 ± 21 mU/ml
[5]; [20]
  Plasma Glucose: 4.7 ± 0.4 mM
  Plasma Insulin: 149 ± 49 mU/ml
[5]; [21]
  Plasma Glucose: 5.1 ± 0.3 mM
  Plasma Insulin: 123 ± 39 mU/ml
[5]; [22]
  Plasma Glucose: 4.7 ± 0.4 mM
  Plasma Insulin: 202 ± 46 mU/ml
[5]; [23]
  Plasma Glucose: 4.3 ± 0.4 mM
  Plasma Insulin: 117 ± 22 mU/ml
[5]; 20 mg/Kg DCP oral gavage, OGTT 0-90 min
  Plasma Glucose AUC: 119 ± 16 mM·min
[5]; 20 mg/Kg DCP oral gavage, OGTT 0-90 min, listed as head prints (mM · min)
  Plasma Insulin AUC: 8,548 ± 2441
[5]; area under plasma glucose and plasma insulin curve
  effect on glucose tolerance in oral glucose tolerance test: increased the glucose tolerance
3T3-L1 adipocytes; 0.5 nM Insulin
  2-Deoxyglucose uptake (Normalised: Vehicle with no insulin = 100%): 1468 ± 400^2%
3T3-L1 adipocytes; 10 nM Insulin
  2-Deoxyglucose uptake (Normalised: Vehicle with no insulin = 100%): 1826 ± 97 ^ %
3T3-L1 adipocytes; no insulin (basal)
  2-Deoxyglucose uptake (Normalised: Vehicle with no insulin = 100%): 508 ± 57^1%
3T3-L1 adipocytes; basal, 0.5 nM and 10 nM insulin
  effect on basal and insulin stimulated 2-deoxyglucose uptake: enhanced

Source: patent US10172837B2, “Insulin sensitisers and methods of treatment” (NAIA Metabolic, Inc., priority 2007, dated 2019)
